According to patent US20260116884A1, “PROTAC CHIMERIC COMPOUND, PREPARATION METHOD THEREFOR AND USE THEREOF” (HANGZHOU ZHONGMEIHUADONG PHARMACEUTICAL CO., LTD., priority 2022, published 2026):
Read-outs that look alike come from different tables or passages of the source.

Columns and labels:
human HPK1 [1] = target: T1, human HPK1 (Homo sapiens, UniProt Q92918); assay: Assay of in vitro HPK1 enzymatic activity (ADP-Glo); assay type: biochemical; conditions: 7 nM kinase, 20 uM ATP
Experimental: Compounds were evaluated for their ability to inhibit human HPK1 by IC50 determination using the ADP-Glo method to measure the kinase activity.
Buffer conditions of the enzyme: 50 mM Hepes (pH 7.5), 10 mM MgCl2, 1 mM EGTA, 0.01% Brij35, 2 mM DTT.
Preparation of the Kinase and substrate mixture: the working concentration of the kinase in the HPK1 reaction solution was 7 nM and the working concentration of ATP was 20 uM.
The compound was diluted with DMSO in a dilution plate, with a maximum starting concentration of 1 uM and 10 concentration gradient points (4-fold dilution).
Each of the above 10 concentration gradient points of the compound was then diluted 50-fold into the kinase reaction buffer and shaken on a shaker for 20 min. The kinase was prepared in an enzyme reaction buffer and 2 μl of the HPK1 kinase was added per well of the reaction plate at a HPK1 kinase concentration of 7 nM.
1 μl of diluted compound in the buffer was added per well, and the plate was sealed with a plate sealing film, centrifuged at 1000 g for 30 seconds, and left at room temperature for 10 minutes. An ATP solution was prepared with an enzyme reaction buffer and 2 μl of the ATP solution was added to the reaction plate (the working concentration of ATP was 20 uM). The plate was sealed with a plate sealing film, centrifuged at 1000 g for 30 seconds, and reacted at room temperature for 60 minutes. 4 μL of ADP-Glu was transferred to a 384 reaction plate, centrifuged at 1000 rpm/min for 1 min, and incubated at 25° C. for 40 min. 8 μL of the Detection solution was transferred to a 384 reaction plate, centrifuged at 1000 rpm/min for 1 min, and incubated at 25° C. for 40 min. The RLU (Relative luminescence unit) signal was read using a BMG microplate reader, and the signal intensity was used to characterize the activity level of the kinase.
The kinase activity data was expressed by comparing the kinase activity of the test compound and the blank group (containing only DMSO), and the IC50 value was obtained by curve fitting using the Prism software (GraphPad7.0).

human HPK1 [2] = target: T1, human HPK1; assay: HPK1 protein degradation assay (WB) in RAMOS cell line; assay type: cell-based; set-up: The RAMOS cell line was selected as the degradation cell line; endogenous in cells; host or cells: RAMOS; conditions: RAMOS cells, 16 h, Western blot
Experimental: Degradation of HPK1 proteins and DC50/Dmax were determined by the WB method in order to evaluate the in vitro degradative ability of the compound.
The RAMOS cell line was selected as the degradation cell line. Incubation Conditions: RMPI 1640 culture medium supplemented with 10% FBS, 37° C., 5% CO2.
• (1) Plating cells: in a 6 cm dish with 4 ml of the culture medium, cells plated at 2×10^6 cells/dish. • (2) Drug addition: the compound (stock solution concentration: 10 mM) was diluted with DMSO in a dilution plate, with a maximum starting concentration of 10 μM and 7 concentration gradient points (3-fold dilution). 4 μl of each diluted solution was taken, added to a dish, and incubated for 16 h. • (3) Cells were harvested, added with a lysis buffer, and centrifuged at 12000 rpm/min for 20 min. The supernatant was collected. After quantification using a BCA quantification kit, 5× loading buffer was added to denature for 10 min. • (4) 10 μg of denatured protein was added to the SDS-PAGE gel. After electrophoresis and membrane transfer, the plate was blocked with 5% BSA for 1 h, incubate with the primary antibody at 4° C. overnight. After washing off the primary antibody, the secondary antibody was added, incubated at room temperature for 1 h, and washed off.
Imaging: the membranes were scanned with a two-color fluorescence imaging system.

[3] = Pharmacokinetics of single administration in mice; assay type: in vivo, Balb/c mice; set-up: Vz: unit not given here
Experimental: Female Balb/c mice (weighing 18-22 g) were fasted overnight prior to the experiment. The test compound was dissolved in the vehicle, DMSO:PEG400:30% captisol:HCl=5:20:70:5 (v/v/v/v), and administered by single oral gavage at a dose of 10 mg/kg or by intravenous injection at a dose of 2 mg/kg. Blood samples were collected from the orbital venous plexus at 15 minutes, 30 minutes, and 1, 2, 4, 6, 8, and 24 h after administration. Approximately 0.08 mL of blood was collected at each time point and placed in a 1.5 mL centrifuge tube containing EDTA-2K anticoagulant. Blood samples were centrifuged (3200 g, 10 min, 4° C.) within 2 h to obtain plasma samples. Plasma samples were frozen at −70° C. to −80° C. in an ultra-low temperature freezer prior to processing. Before sample processing, the plasma samples were taken out of the freezer. After thawing at room temperature, 20 μL of each plasma sample was added into a 96-well plate, and then 120 μL of acetonitrile containing an internal standard was added to precipitate proteins. […] The supernatant was taken and mixed with an equal volume of 0.1% aqueous formic acid solution for LC-MS/MS analysis.

[4] = female, Balb/c, mouse, plasma, iv 2 mg/kg
[5] = female, Balb/c, mouse, plasma, iv 2 mg/kg, read-out: AUC
[6] = female, Balb/c, mouse, plasma, po 10 mg/kg
[7] = female, Balb/c, mouse, plasma, po 10 mg/kg vs iv 2 mg/kg
[8] = female, Balb/c, mouse, plasma, po 10 mg/kg, read-out: AUC
[9] = female, Balb/c, mouse, plasma, po 10 mg/kg, read-out: Cmax

T1 sequence (Q92918 whole entry): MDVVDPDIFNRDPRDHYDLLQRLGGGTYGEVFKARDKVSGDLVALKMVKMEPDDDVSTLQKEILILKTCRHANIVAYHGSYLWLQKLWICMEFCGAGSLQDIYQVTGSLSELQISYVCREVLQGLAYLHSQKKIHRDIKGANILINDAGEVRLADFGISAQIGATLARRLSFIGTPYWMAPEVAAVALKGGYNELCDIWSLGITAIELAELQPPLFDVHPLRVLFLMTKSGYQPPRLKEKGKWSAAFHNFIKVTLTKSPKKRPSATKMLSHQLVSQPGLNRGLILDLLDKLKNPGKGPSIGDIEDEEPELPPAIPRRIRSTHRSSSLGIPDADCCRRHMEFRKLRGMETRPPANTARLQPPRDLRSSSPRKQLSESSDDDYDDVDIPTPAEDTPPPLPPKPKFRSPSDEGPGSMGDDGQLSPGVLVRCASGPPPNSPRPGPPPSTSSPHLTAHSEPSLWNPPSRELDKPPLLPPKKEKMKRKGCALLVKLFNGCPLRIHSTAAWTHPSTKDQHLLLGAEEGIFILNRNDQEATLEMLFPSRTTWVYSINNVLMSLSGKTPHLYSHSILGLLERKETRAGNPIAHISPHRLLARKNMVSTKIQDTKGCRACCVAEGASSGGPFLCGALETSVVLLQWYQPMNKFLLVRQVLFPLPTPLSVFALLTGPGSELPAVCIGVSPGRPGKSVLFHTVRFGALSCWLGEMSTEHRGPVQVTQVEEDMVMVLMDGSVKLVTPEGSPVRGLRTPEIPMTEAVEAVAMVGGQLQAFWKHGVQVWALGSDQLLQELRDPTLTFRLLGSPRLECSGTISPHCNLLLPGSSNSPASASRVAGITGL

SMILES | DC50 (human HPK1 [2]) | Dmax (human HPK1 [2]) | further results
CCN1CCC(n2cc(-c3c[nH]c4ncc(-c5cnc(OCCN(C)C(=O)c6ccc(Cl)c(N7CCC(=O)NC7=O)c6)c(C)c5)nc34)cn2)CC1 [Compound C045] |  |  | IC50 (human HPK1 [1]): 5.1 nM
CCN1CCC(n2cc(-c3c[nH]c4ncc(-c5cnc(OCC(=O)Nc6ccc(NC7CCC(=O)NC7=O)cc6)c(F)c5)nc34)cn2)CC1 (centres unmarked) [Compound C008] |  |  | IC50 (human HPK1 [1]): 3.5 nM
CCN1CCC(n2cc(-c3c[nH]c4ncc(-c5ccc(OCCCNC(=O)c6cccc(N7CCC(=O)NC7=O)c6)c(C)c5)nc34)cn2)CC1 [Compound C042] |  |  | IC50 (human HPK1 [1]): 2.1 nM
O=C1CCN(c2cc(C(=O)N3CCC(CC4CCN(c5ccc(-c6cnc7[nH]cc(-c8cnn([C@@H]9CCOC9)c8)c7n6)cn5)CC4)CC3)ccc2Cl)C(=O)N1 [Compound C199] | 83 nM | 83.8% | 
O=C1CCN(c2cc(C(=O)N3CCC(CC4CCN(c5ccc(-c6cnc7[nH]cc(-c8cn[nH]c8)c7n6)cn5)CC4)CC3)ccc2Cl)C(=O)N1 [Compound C198] | 32.9 nM | 91.8% | 
CC(C)(C#N)n1cc(-c2c[nH]c3ncc(-c4ccc(N5CCC(CC6CCN(C(=O)c7ccc(Cl)c(N8CCC(=O)NC8=O)c7)CC6)CC5)nc4)nc23)cn1 [Compound C181] | 214 nM | 64.4% | 
CCN1CCC(n2cc(-c3c[nH]c4ncc(-c5ccc(N6CCC(F)(CN7CCN(C(=O)c8ccc(Cl)c(N9CCC(=O)NC9=O)c8)CC7)CC6)cc5)nc34)cn2)CC1 [Compound C137] | 230 nM | 58.4% | 
CCN1CCC(n2cc(-c3c[nH]c4ncc(-c5ccc(N6CCC(CC7CCCN(C(=O)c8ccc(Cl)c(N9CCC(=O)NC9=O)c8)CC7)CC6)nc5)nc34)cn2)CC1 (centres unmarked) [Compound C085] | 385 nM | 56.4% | 
CCc1c[nH]c2ncc(-c3ccc(N4CCC(CC5CCN(C(=O)c6ccc(Cl)c(N7CCC(=O)NC7=O)c6)CC5)CC4)nc3)nc12 [Compound C205] | 89.9 nM | 83% | 
O=C1CCN(c2cc(C(=O)N3CCC(CC4CCN(c5ccc(-c6cnc7[nH]cc(-c8cnn(CC9CC9)c8)c7n6)cn5)CC4)CC3)ccc2Cl)C(=O)N1 [Compound C177] | 632 nM | 51.6% | 
O=C1CCN(c2cc(C(=O)N3CCC(CC4CCN(c5ccc(-c6cnc7[nH]cc(-c8cnn(CC(F)(F)F)c8)c7n6)cn5)CC4)CC3)ccc2Cl)C(=O)N1 [Compound C196] |  | 93.8% | 
Cc1ccc(C(=O)N2CCC(CC3CCN(c4ncc(-c5cnc6[nH]cc(-c7cnn(C)c7)c6n5)cn4)CC3)CC2)cc1N1CCC(=O)NC1=O [Compound C204] | 58 nM | 85.4% | 
Cn1cc(-c2c[nH]c3ncc(-c4ccc(N5CCC(CC6CCN(C(=O)c7ccc(Cl)c(N8CCC(=O)NC8=O)c7)CC6)CC5)cc4)nc23)cn1 [Compound C140] | 198 nM | 50.7% | 
Cn1cc(-c2c[nH]c3ncc(-c4ccc(N5CCC(CC6CCN(C(=O)c7ccc(Cl)c(C8CCC(=O)NC8=O)c7)CC6)CC5)nc4)nc23)cn1 (centres unmarked) [Compound C206] | 190 nM | 73% | 

More lines, main results first:

DC50 (human HPK1 [2]) | Dmax (human HPK1 [2]) | SMILES | further results
21.4 nM |  | CCN1CCC(n2cc(-c3c[nH]c4ncc(-c5ccc(N6CCC(CC7CCN(C(=O)c8ccc(Cl)c(N9CCC(=O)NC9=O)c8)CC7)CC6)nc5)nc34)cn2)CC1 [Compound C092] | 
23.9 nM | 66.8% | O=C1CCN(c2cc(C(=O)N3CCC(CC4CCN(c5ccc(-c6cnc7[nH]cc(-c8cnn(C(F)F)c8)c7n6)cn5)CC4)CC3)ccc2Cl)C(=O)N1 [Compound C167] | 
5.28 nM | 77.5% | O=C1CCN(c2cc(C(=O)N3CCC(CC4CCN(c5ccc(-c6cnc7[nH]cc(-c8cnn(CCF)c8)c7n6)cn5)CC4)CC3)ccc2Cl)C(=O)N1 [Compound C197] | clearance [3, 4]: 4.5 mL/min/kg; AUC ([3]; iv 2 mg/kg): 7397 ng·h/mL; Vz ([3]; iv 2 mg/kg): 917; t1/2 ([3]; iv 2 mg/kg): 2.35 h; AUC ([3]; po 10 mg/kg): 9202 ng·h/mL; Cmax ([3]; po 10 mg/kg): 4680 ng/mL; t1/2 ([3]; po 10 mg/kg): 3.18 h; F % ([3]; po 10 mg/kg vs iv 2 mg/kg): 25.1%
5.99 nM | 91.7% | Cn1cc(-c2c[nH]c3ncc(-c4cnc(N5CCC(CC6CCN(C(=O)c7ccc(Cl)c(N8CCC(=O)NC8=O)c7)CC6)CC5)nc4)nc23)cn1 [Compound C203] | 
18.7 nM | 80.7% | O=C1CCN(c2cc(C(=O)N3CCC(CC4CCN(c5ccc(-c6cnc7[nH]cc(-c8cnn(CC(F)F)c8)c7n6)cn5)CC4)CC3)ccc2Cl)C(=O)N1 [Compound C195] | clearance [3, 4]: 0.785 mL/min/kg; half-life [3, 4]: 2.41 h; AUC [3, 5]: 42500 ng·h/mL; half-life [3, 6]: 2.8 h; bioavailability [3, 7]: 20.7%; AUC [3, 8]: 44000 ng·h/mL; Cmax [3, 9]: 14300 ng/mL; Vz ([3]; iv 2 mg/kg): 164
1.21 nM | 93% | CCN1CCC(n2cc(-c3c[nH]c4ncc(-c5ccc(N6CCC(CN7CCN(C(=O)c8ccc(Cl)c(N9CCC(=O)NC9=O)c8)CC7)CC6)nc5)nc34)cn2)CC1 [Compound C084] | 
29 nM | 84% | O=C1CCC(c2cc(C(=O)N3CCC(CC4CCN(c5ccc(-c6cnc7[nH]cc(-c8cnn(CCO)c8)c7n6)cn5)CC4)CC3)ccc2Cl)C(=O)N1 (centres unmarked) [Compound C209] | 
30.6 nM | 76.1% | COCCn1cc(-c2c[nH]c3ncc(-c4ccc(N5CCC(CC6CCN(C(=O)c7ccc(Cl)c(N8CCC(=O)NC8=O)c7)CC6)CC5)nc4)nc23)cn1 [Compound C201] | clearance [3, 4]: 6.58 mL/min/kg; half-life [3, 4]: 2.16 h; AUC [3, 5]: 5050 ng·h/mL; half-life [3, 6]: 2.63 h; bioavailability [3, 7]: 34.2%; AUC [3, 8]: 8660 ng·h/mL; Cmax [3, 9]: 4500 ng/mL; Vz ([3]; iv 2 mg/kg): 1230
23.5 nM | 66.4% | CCN1CCC(n2cc(-c3c[nH]c4ncc(-c5ccc(N6CCC(CC7CCN(C(=O)c8ccc(Cl)c(N9CCC(=O)NC9=O)c8)CC7C)CC6)cc5)nc34)cn2)CC1 (centres unmarked) [Compound C115] | 
